# Results from patent publication US11395847B2, “Acylated GLP-1/GLP-2 dual agonists” (Zealand Pharma A/S, priority 2016, dated 2022).
# Like-named read-outs stand apart in the source and are kept apart here. Where a SMILES comes first, the peptide text is derived from it.
# What was measured:
# [1] = Chemical stability (RP-HPLC normalized purity after incubation at 40° C.); assay type: physicochemical; conditions: 14-day incubation, 0.2 mg/ml, normalized purity (area-%); for pH 6 normalized stability: pH 6, 40° C.; for pH 7 normalized stability: pH 7, 40° C.
# Method in brief: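 Peptide at 0.2 mg/ml final in water adjusted to pH 6, 7, 7.5 or 9, incubated at 40° C for 14 days. Purity measured as main-peak area-% by C18 RP-HPLC (acetonitrile/TFA/water gradient, UV 220 nm) and normalized to T=0 set at 100 for each pH.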
# [2] = system: Normal chow-fed C57BL/6J male mice; assay: Effect on fasting glucose and intestinal weight in normal mice; assay type: in vivo; conditions: for Small intestinal wet weight: 100 nmol/kg s.c. once daily for 4 days, sacrificed 24 hours after final dosing; for Fasting blood glucose: 100 nmol/kg s.c., day 0 after a single injection, fasted mice
# Procedure: Normal chow-fed C57BL/6J male mice were used. The mice were kept in standard housing conditions, light-, temperature-, and humidity-controlled room (12:12 h light-dark cycle, with lights on at 06.00-18.00 h; 20-22° C.; 50-80% relative humidity). Each dosing group consisted of 6 animals. Mice were dosed once daily with 100 nmol/kg with the test compounds or vehicle for 4 days via subcutaneous administration.
# On day 0 mice were fasted and blood glucose levels measured after a single s.c. injection with peptides. Animals were sacrificed 24 hours after final dosing on day 3, and small intestinal wet weights were measured.
# human GLP-2 receptor = molecular target: T1, human GLP-2 receptor (Homo sapiens, UniProt O95838, D470N); assay: GLP-2 receptor potency assay (cAMP ALPHASCREEN, HEK293 cells stably expressing GLP-2 R); assay type: cell-based; conditions: cAMP response, HEK293 cells expressing human GLP-2 R; read-out: EC50 GLP-2
# T1 construct: expressed in transfected cells
# T1 sequence (O95838 1-553 D470N): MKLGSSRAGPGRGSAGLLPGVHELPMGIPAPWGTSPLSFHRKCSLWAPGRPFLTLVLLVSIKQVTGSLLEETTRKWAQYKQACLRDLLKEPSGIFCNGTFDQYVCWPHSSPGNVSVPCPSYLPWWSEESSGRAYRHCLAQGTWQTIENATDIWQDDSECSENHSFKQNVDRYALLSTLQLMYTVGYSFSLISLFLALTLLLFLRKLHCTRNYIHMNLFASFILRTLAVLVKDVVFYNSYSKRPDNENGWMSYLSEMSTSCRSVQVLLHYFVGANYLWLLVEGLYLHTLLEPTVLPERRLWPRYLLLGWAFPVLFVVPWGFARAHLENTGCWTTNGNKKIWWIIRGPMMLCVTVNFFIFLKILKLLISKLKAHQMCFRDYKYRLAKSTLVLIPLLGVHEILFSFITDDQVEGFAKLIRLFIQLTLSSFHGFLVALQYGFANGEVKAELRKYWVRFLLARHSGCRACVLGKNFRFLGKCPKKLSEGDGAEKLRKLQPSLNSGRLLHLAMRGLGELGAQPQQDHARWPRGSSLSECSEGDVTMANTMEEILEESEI
# Method in brief: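 HEK293 clones stably transfected with the human GLP-2 receptor, selected with G418, were used. Intracellular cAMP was quantified by AlphaScreen. Responses were normalised to positive and vehicle controls, and EC50 and maximal response were taken from concentration-response curves.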
# [3] = Solubility assessment (turbidity absorbance at 325 nm); assay type: physicochemical
# Method in brief: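 Peptide stock at 2 mg/ml in water at pH 2.5 diluted 1:1 into 100 mM acetate (pH 4.0, 5.0), histidine (pH 6.0, 7.0) or phosphate (pH 6.0, 7.0, 7.5) buffer. Absorbance at 280 and 325 nm read at ambient temperature (typically 25 °C), single samples (n=1).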
Compound,pH 6 normalized stability [1],pH 7 normalized stability [1],Small intestinal wet weight [2] [g],Fasting blood glucose [2] [mM],EC50 (human GLP-2 receptor) [nM],"solubility ([3]; 100 mM acetate buffer pH 4.0, ambient temperature, read-out: Solubility Acetate buffer pH 4) [µg/mL]","solubility ([3]; 100 mM acetate buffer pH 5.0, ambient temperature, read-out: Solubility Acetate buffer pH 5) [µg/mL]","solubility ([3]; 100 mM histidine buffer pH 6.0, ambient temperature, read-out: Solubility Histidine buffer pH 6) [µg/mL]","solubility ([3]; 100 mM histidine buffer pH 7.0, ambient temperature, read-out: Solubility Histidine buffer pH 7) [µg/mL]","solubility ([3]; 100 mM phosphate buffer pH 6.0, ambient temperature, read-out: Solubility Phosphate buffer pH 6) [µg/mL]","solubility ([3]; 100 mM phosphate buffer pH 7.0, ambient temperature, read-out: Solubility Phosphate buffer pH 7) [µg/mL]","solubility ([3]; 100 mM phosphate buffer pH 7.5, ambient temperature, read-out: Solubility Phosphate buffer pH 7.5) [µg/mL]"
"CC[C@H](C)[C@H](NC(=O)[C@H](Cc1ccccc1)NC(=O)[C@H](CC(=O)O)NC(=O)[C@H](CCCNC(=N)N)NC(=O)[C@H](C)NC(=O)[C@H](C)NC(=O)[C@H](CCCCN)NC(=O)[C@H](CCCCNC(=O)CC[C@H](NC(=O)CCCCCCCCCCCCCCCCC(=O)O)C(=O)O)NC(=O)[C@H](CC(=O)O)NC(=O)[C@H](CC(C)C)NC(=O)[C@@H](NC(=O)[C@@H](NC(=O)[C@H](C)NC(=O)[C@H](CC(C)C)NC(=O)[C@H](CCC(=O)O)NC(=O)[C@H](CO)NC(=O)[C@@H](NC(=O)[C@H](Cc1ccccc1)NC(=O)[C@H](CO)NC(=O)CNC(=O)[C@H](CCC(=O)O)NC(=O)C(C)(C)NC(=O)[C@@H](N)Cc1c[nH]cn1)[C@@H](C)O)[C@@H](C)O)[C@@H](C)CC)C(=O)N[C@@H](C)C(=O)N[C@@H](Cc1c[nH]c2ccccc12)C(=O)N[C@@H](CC(C)C)C(=O)N[C@H](C(=O)N[C@@H](CCC(=O)O)C(=O)N[C@@H](Cc1c[nH]cn1)C(=O)N[C@@H](CCCCN)C(=O)N[C@H](C(=O)N[C@H](C(=O)N[C@@H](CC(=O)O)C(=O)O)[C@@H](C)O)[C@@H](C)CC)[C@@H](C)CC [Compound 5] (HELM PEPTIDE1{H.[Aib].E.G.S.F.T.S.E.L.A.T.I.L.D.K.K.A.A.R.D.F.I.A.W.L.I.E.H.K.I.T.D}|PEPTIDE2{[O=C(O)CCCCCCCCCCCCCCCCC(=O)[*:2]].[gGlu]}$PEPTIDE1,PEPTIDE2,16:R3-2:R2$$$V2.0)",A (>90% normalised stability),A (>90% normalised stability),1.35,4.60,–,–,–,–,–,–,–,–
"CC[C@H](C)[C@H](NC(=O)[C@H](Cc1ccccc1)NC(=O)[C@H](CC(=O)O)NC(=O)[C@H](CCCNC(=N)N)NC(=O)[C@H](C)NC(=O)[C@H](C)NC(=O)[C@H](CCCCNC(=O)CC[C@H](NC(=O)CCCCCCCCCCCCCCCCC(=O)O)C(=O)O)NC(=O)CNC(=O)[C@H](CC(=O)O)NC(=O)[C@H](CC(C)C)NC(=O)[C@@H](NC(=O)[C@@H](NC(=O)[C@H](C)NC(=O)[C@H](CC(C)C)NC(=O)[C@H](CCC(=O)O)NC(=O)[C@H](CO)NC(=O)[C@@H](NC(=O)[C@H](Cc1ccccc1)NC(=O)[C@@H](NC(=O)CNC(=O)[C@H](CCC(=O)O)NC(=O)C(C)(C)NC(=O)[C@@H](N)Cc1c[nH]cn1)[C@@H](C)O)[C@@H](C)O)[C@@H](C)O)[C@@H](C)CC)C(=O)N[C@@H](C)C(=O)N[C@@H](Cc1c[nH]c2ccccc12)C(=O)N[C@@H](CC(C)C)C(=O)N[C@H](C(=O)N[C@@H](CCC(=O)O)C(=O)N[C@@H](Cc1c[nH]cn1)C(=O)N[C@@H](CCCCN)C(=O)N[C@H](C(=O)N[C@H](C(=O)N[C@@H](CC(=O)O)C(=O)O)[C@@H](C)O)[C@@H](C)CC)[C@@H](C)CC [Compound 9] (HELM PEPTIDE1{H.[Aib].E.G.T.F.T.S.E.L.A.T.I.L.D.G.K.A.A.R.D.F.I.A.W.L.I.E.H.K.I.T.D}|PEPTIDE2{[O=C(O)CCCCCCCCCCCCCCCCC(=O)[*:2]].[gGlu]}$PEPTIDE1,PEPTIDE2,17:R3-2:R2$$$V2.0)",–,–,1.11,4.98,0.056,–,–,–,–,–,–,–
"CC[C@H](C)[C@H](NC(=O)[C@H](Cc1ccccc1)NC(=O)[C@H](CC(=O)O)NC(=O)[C@H](CCCNC(=N)N)NC(=O)[C@H](C)NC(=O)[C@H](C)NC(=O)[C@H](CCC(N)=O)NC(=O)[C@H](CCCCNC(=O)COCCOCCNC(=O)[C@H](CCCCN)NC(=O)[C@H](CCC(=O)O)NC(=O)[C@H](CCCCN)NC(=O)CC[C@H](NC(=O)CCCCCCCCCCCCCCCCCCC(=O)O)C(=O)O)NC(=O)[C@H](CC(=O)O)NC(=O)[C@H](CC(C)C)NC(=O)[C@@H](NC(=O)[C@@H](NC(=O)[C@H](C)NC(=O)[C@H](CC(C)C)NC(=O)[C@H](CCC(=O)O)NC(=O)[C@H](CO)NC(=O)[C@H](CO)NC(=O)[C@H](Cc1ccccc1)NC(=O)[C@@H](NC(=O)CNC(=O)[C@H](CCC(=O)O)NC(=O)C(C)(C)NC(=O)[C@@H](N)Cc1c[nH]cn1)[C@@H](C)O)[C@@H](C)O)[C@@H](C)CC)C(=O)N[C@@H](C)C(=O)N[C@@H](Cc1c[nH]c2ccccc12)C(=O)N[C@@H](CC(C)C)C(=O)N[C@H](C(=O)N[C@@H](CCC(N)=O)C(=O)N[C@@H](Cc1c[nH]cn1)C(=O)N[C@@H](CCCCN)C(=O)N[C@H](C(=O)N[C@H](C(=O)N[C@@H](CC(=O)O)C(=O)O)[C@@H](C)O)[C@@H](C)CC)[C@@H](C)CC [Compound 48] (HELM PEPTIDE1{H.[Aib].E.G.T.F.S.S.E.L.A.T.I.L.D.K.Q.A.A.R.D.F.I.A.W.L.I.Q.H.K.I.T.D}|PEPTIDE2{[O=C(O)CCCCCCCCCCCCCCCCCCC(=O)[*:2]].[gGlu].K.E.K.[O=C(COCCOCCN[*:1])[*:2]]}$PEPTIDE1,PEPTIDE2,16:R3-6:R2$$$V2.0)",–,–,1.41,5.08,–,–,–,–,–,–,–,–
"CC[C@H](C)[C@H](NC(=O)[C@H](Cc1ccccc1)NC(=O)[C@H](CC(=O)O)NC(=O)[C@H](CCCNC(=N)N)NC(=O)[C@H](C)NC(=O)[C@H](C)NC(=O)[C@H](CCC(N)=O)NC(=O)[C@H](CCCCNC(=O)CC[C@H](NC(=O)CCCCCCCCCCCCCCCCC(=O)O)C(=O)O)NC(=O)[C@H](CC(=O)O)NC(=O)[C@H](CC(C)C)NC(=O)[C@@H](NC(=O)[C@@H](NC(=O)[C@H](C)NC(=O)[C@H](CC(C)C)NC(=O)[C@H](CCC(=O)O)NC(=O)[C@H](CO)NC(=O)[C@@H](NC(=O)[C@H](Cc1ccccc1)NC(=O)[C@H](CO)NC(=O)CNC(=O)[C@H](CCC(=O)O)NC(=O)C(C)(C)NC(=O)[C@@H](N)Cc1c[nH]cn1)[C@@H](C)O)[C@@H](C)O)[C@@H](C)CC)C(=O)N[C@@H](C)C(=O)N[C@@H](Cc1c[nH]c2ccccc12)C(=O)N[C@@H](CC(C)C)C(=O)N[C@H](C(=O)N[C@@H](CCC(N)=O)C(=O)N[C@@H](Cc1c[nH]cn1)C(=O)N[C@@H](CCCCN)C(=O)N[C@H](C(=O)N[C@H](C(=O)N[C@@H](CC(=O)O)C(=O)O)[C@@H](C)O)[C@@H](C)CC)[C@@H](C)CC [Compound 18] (HELM PEPTIDE1{H.[Aib].E.G.S.F.T.S.E.L.A.T.I.L.D.K.Q.A.A.R.D.F.I.A.W.L.I.Q.H.K.I.T.D}|PEPTIDE2{[O=C(O)CCCCCCCCCCCCCCCCC(=O)[*:2]].[gGlu]}$PEPTIDE1,PEPTIDE2,16:R3-2:R2$$$V2.0)",A (>90% normalised stability),A (>90% normalised stability),1.37,5.26,–,< 1000,< 1000,≥ 1000,≥ 1000,≥ 1000,≥ 1000,≥ 1000
